According to ChEMBL document CHEMBL1201862, “PubChem BioAssay data set” (2004):
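Protocol summary: plate cells (96-well), add compound at 5 concentrations, incubate 48 h, interpolate endpoints linearly. Here, GI50 denotes the concentration required for 50% inhibition of growth.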 The source made the active and inactive calls. Cut-off read from the data, not from the text of the source: active = GI50 up to about 1.1 µM and inactive = higher.

How the values were obtained:
Assay in all cases: NCI anticancer screen, dose series, 48 h
[1] = tested on: 786-0
[2] = tested on: A498
[3] = tested on: ACHN
[4] = tested on: CAKI-1
[5] = tested on: COLO 205
[6] = tested on: EKVX
[7] = tested on: HCC 2998
[8] = tested on: HCT-15
[9] = tested on: HL-60
[10] = tested on: HOP-62
[11] = tested on: IGROV-1
[12] = tested on: MDA-MB-435
[13] = tested on: NCI-H23
[14] = tested on: NCI/ADR-RES
[15] = tested on: OVCAR-3
[16] = tested on: SF-268
[17] = tested on: SF-295
[18] = tested on: T47D
[19] = tested on: UO-31
[20] = tested on: MOLT-4

## COc1ccc(/C=N/c2c(O)ccc3ccccc23)cc1OC
[1]
  GI50: > 100 µM (inactive)
[2]
  GI50: > 100 µM (inactive)
[3]
  GI50: > 100 µM (inactive)
[4]
  GI50: 63.2 µM (inactive)
[5]
  GI50: 33 µM (inactive)
[6]
  GI50: > 100 µM (inactive)
[7]
  GI50: > 100 µM (inactive)
[8]
  GI50: > 100 µM
[9]
  GI50: 22.1 µM (inactive)
[10]
  GI50: 92 µM (inactive)
[11]
  GI50: 2.81 µM (inactive)
[12]
  GI50: 18.9 µM (inactive)
[13]
  GI50: 31.8 µM (inactive)
[14]
  GI50: > 100 µM (inactive)
[15]
  GI50: 5.14 µM (inactive)
[16]
  GI50: 19.4 µM (inactive)
[17]
  GI50: 63.7 µM (inactive)
[18]
  GI50: 84.5 µM (inactive)
[19]
  GI50: > 100 µM (inactive)

## Cc1cc(-c2nc3cccc(F)c3s2)ccc1N
[1]
  GI50: > 56.2 µM (inactive)
[2]
  GI50: > 58.6 µM (inactive)
[3]
  GI50: > 74.1 µM (inactive)
[4]
  GI50: > 59.6 µM (inactive)
[5]
  GI50: > 100 µM (inactive)
[6]
  GI50: 49.5 µM (inactive)
[7]
  GI50: > 37.1 µM (inactive)
[8]
  GI50: > 67.6 µM
[9]
  GI50: 13.3 µM (inactive)
[10]
  GI50: > 100 µM (inactive)
[11]
  GI50: 1.93 µM (inactive)
[12]
  GI50: > 61.4 µM (inactive)
[20]
  GI50: 42.9 µM (inactive)
[14]
  GI50: > 62.2 µM (inactive)
[15]
  GI50: > 66.5 µM (inactive)
[16]
  GI50: > 35 µM (inactive)
[17]
  GI50: > 65 µM (inactive)
[18]
  GI50: 0.033 µM (active)
[19]
  GI50: > 45 µM (inactive)

## COc1ccc(/C=C(/C)[N+](=O)[O-])cc1
[1]
  GI50: 1.26 µM (inactive)
[2]
  GI50: 2.7 µM (inactive)
[3]
  GI50: 1.99 µM (inactive)
[4]
  GI50: 2.32 µM (inactive)
[5]
  GI50: 2.08 µM (inactive)
[6]
  GI50: 2.13 µM (inactive)
[7]
  GI50: 1.77 µM (inactive)
[8]
  GI50: 2.28 µM
[9]
  GI50: 2.62 µM (inactive)
[10]
  GI50: 1.86 µM (inactive)
[11]
  GI50: 2.13 µM (inactive)
[12]
  GI50: 1.95 µM (inactive)
[20]
  GI50: 1.37 µM (inactive)
[13]
  GI50: 2.03 µM (inactive)
[14]
  GI50: 3.41 µM (inactive)
[15]
  GI50: 1.82 µM (inactive)
[16]
  GI50: 3.15 µM (inactive)
[17]
  GI50: 6.84 µM (inactive)
[18]
  GI50: 3.72 µM (inactive)
[19]
  GI50: 1.67 µM (inactive)

## CCOC(=O)c1cc2cc(Cc3ccc4[nH]c(C(=O)OCC)cc4c3)ccc2[nH]1
[1]
  GI50: 2.86 µM (inactive)
[2]
  GI50: 17.3 µM (inactive)
[3]
  GI50: 14.5 µM (inactive)
[4]
  GI50: 12 µM (inactive)
[5]
  GI50: 47.3 µM (inactive)
[6]
  GI50: 21.5 µM (inactive)
[7]
  GI50: 91.6 µM (inactive)
[8]
  GI50: > 100 µM
[9]
  GI50: 9.35 µM (inactive)
[10]
  GI50: 5.14 µM (inactive)
[11]
  GI50: 15.4 µM (inactive)
[12]
  GI50: 27.2 µM (inactive)
[20]
  GI50: > 100 µM (inactive)
[13]
  GI50: 14.7 µM (inactive)
[14]
  GI50: 13.4 µM (inactive)
[15]
  GI50: 73.6 µM (inactive)
[16]
  GI50: 13.5 µM (inactive)
[17]
  GI50: 17.5 µM (inactive)
[18]
  GI50: 32.4 µM (inactive)
[19]
  GI50: 59 µM (inactive)

## CSC(SC)=C(C#N)C(=O)Nc1ccc(Cl)cc1
[1]
  GI50: 31.7 µM (inactive)
[2]
  GI50: 10.6 µM (inactive)
[4]
  GI50: 22 µM (inactive)
[5]
  GI50: 18.3 µM (inactive)
[6]
  GI50: 44.7 µM (inactive)
[7]
  GI50: > 100 µM (inactive)
[8]
  GI50: 33.2 µM
[9]
  GI50: 23.9 µM (inactive)
[12]
  GI50: 69.2 µM (inactive)
[20]
  GI50: 27.7 µM (inactive)
[13]
  GI50: 30.2 µM (inactive)
[14]
  GI50: 44.4 µM (inactive)
[15]
  GI50: > 100 µM (inactive)
[16]
  GI50: 61.7 µM (inactive)
[18]
  GI50: 25.4 µM (inactive)
[19]
  GI50: 22 µM (inactive)

## N=c1c2c(=S)n(-c3ccccc3)c(=S)n(-c3ccccc3)c2nc(SCCCN2CCCCC2)n1-c1ccccc1
[1]
  GI50: 1.09 µM (active)
[2]
  GI50: 2.52 µM (inactive)
[3]
  GI50: 1.7 µM (inactive)
[4]
  GI50: 1.77 µM (inactive)
[5]
  GI50: 1.77 µM (inactive)
[6]
  GI50: 1.98 µM (inactive)
[7]
  GI50: 1.49 µM (inactive)
[8]
  GI50: 1.55 µM
[9]
  GI50: 1.81 µM (inactive)
[10]
  GI50: 1.76 µM (inactive)
[11]
  GI50: 1.5 µM (inactive)
[12]
  GI50: 1.75 µM (inactive)
[20]
  GI50: 0.118 µM (active)
[13]
  GI50: 1.98 µM (inactive)
[14]
  GI50: 2.91 µM (inactive)
[15]
  GI50: 1.65 µM (inactive)
[16]
  GI50: 1.99 µM (inactive)
[17]
  GI50: 4.91 µM (inactive)
[18]
  GI50: 2.14 µM (inactive)

## CC1CC[C@@H](C(C)C)[C@H](Oc2nnc(C3OC(CO)C(O)C3O)o2)C1 (stereo partly drawn)
[1]
  GI50: > 100 µM (inactive)
[2]
  GI50: > 100 µM (inactive)
[3]
  GI50: > 100 µM (inactive)
[4]
  GI50: > 100 µM (inactive)
[5]
  GI50: > 100 µM (inactive)
[6]
  GI50: > 100 µM (inactive)
[7]
  GI50: > 100 µM (inactive)
[8]
  GI50: > 100 µM
[9]
  GI50: > 100 µM (inactive)
[10]
  GI50: > 100 µM (inactive)
[12]
  GI50: > 100 µM (inactive)
[20]
  GI50: > 100 µM (inactive)
[13]
  GI50: > 100 µM (inactive)
[14]
  GI50: > 100 µM (inactive)
[15]
  GI50: > 100 µM (inactive)
[16]
  GI50: > 100 µM (inactive)
[17]
  GI50: > 100 µM (inactive)
[18]
  GI50: > 100 µM (inactive)
[19]
  GI50: > 100 µM (inactive)

## O=C1CSC(c2cccc(Oc3ccccc3)c2)N1c1cc(Cl)ccc1Cl (stereo not drawn)
[1]
  GI50: 18.2 µM (inactive)
[2]
  GI50: 32.6 µM (inactive)
[3]
  GI50: 24 µM (inactive)
[4]
  GI50: 22.5 µM (inactive)
[5]
  GI50: 36.7 µM (inactive)
[6]
  GI50: 26.1 µM (inactive)
[7]
  GI50: 14 µM (inactive)
[8]
  GI50: 23.8 µM
[9]
  GI50: 27.3 µM (inactive)
[10]
  GI50: 21.9 µM (inactive)
[12]
  GI50: 15.4 µM (inactive)
[20]
  GI50: 22.6 µM (inactive)
[13]
  GI50: 31.9 µM (inactive)
[14]
  GI50: 29.2 µM (inactive)
[15]
  GI50: 22.1 µM (inactive)
[16]
  GI50: 19.7 µM (inactive)
[17]
  GI50: 23 µM (inactive)
[18]
  GI50: 21.7 µM (inactive)
[19]
  GI50: 23.3 µM (inactive)

## CCN(CC)c1ccc2cc(-c3nc4ccccc4n3C)c(=O)oc2c1
[1]
  GI50: 0.381 µM (active)
[2]
  GI50: 0.0163 µM (active)
[3]
  GI50: 2.79 µM (inactive)
[4]
  GI50: 0.288 µM (active)
[5]
  GI50: 0.315 µM (active)
[7]
  GI50: 0.685 µM (active)
[8]
  GI50: 0.17 µM
[9]
  GI50: 0.206 µM (active)
[10]
  GI50: 0.411 µM (active)
[11]
  GI50: 0.485 µM (active)
[12]
  GI50: 0.0369 µM (active)
[20]
  GI50: 0.533 µM (active)
[13]
  GI50: 0.334 µM (active)
[14]
  GI50: 0.135 µM (active)
[15]
  GI50: 0.24 µM (active)
[16]
  GI50: 2.05 µM (inactive)
[17]
  GI50: 0.285 µM (active)
[18]
  GI50: > 100 µM (inactive)
[19]
  GI50: 3.52 µM (inactive)

## Cc1cnc(-c2c[nH]c3ccccc23)nc1-c1c[nH]c2ccccc12
[1]
  GI50: 3.58 µM (inactive)
[2]
  GI50: 2.6 µM (inactive)
[3]
  GI50: 2.94 µM (inactive)
[4]
  GI50: 5.4 µM (inactive)
[5]
  GI50: 4.58 µM (inactive)
[6]
  GI50: 6.21 µM (inactive)
[7]
  GI50: 4.67 µM (inactive)
[8]
  GI50: 5.81 µM
[9]
  GI50: 5 µM (inactive)
[10]
  GI50: 11.7 µM (inactive)
[11]
  GI50: 1.14 µM (inactive)
[12]
  GI50: 5.87 µM (inactive)
[20]
  GI50: 4.2 µM (inactive)
[14]
  GI50: 7.67 µM (inactive)
[15]
  GI50: 8.13 µM (inactive)
[16]
  GI50: 15.9 µM (inactive)
[17]
  GI50: 3.29 µM (inactive)
[18]
  GI50: 1.75 µM (inactive)
[19]
  GI50: 6.97 µM (inactive)

## Cc1occc1/C(S)=N\c1ccc(Cl)c(C(=O)OCC2CC2)c1
[1]
  GI50: 44.9 µM (inactive)
[2]
  GI50: 35.8 µM (inactive)
[3]
  GI50: 34.5 µM (inactive)
[4]
  GI50: 5.81 µM (inactive)
[5]
  GI50: 26.7 µM (inactive)
[6]
  GI50: 35 µM (inactive)
[7]
  GI50: 26.7 µM (inactive)
[8]
  GI50: 31.5 µM
[9]
  GI50: 28.4 µM (inactive)
[11]
  GI50: 37.3 µM (inactive)
[12]
  GI50: 75.3 µM (inactive)
[20]
  GI50: 14.9 µM (inactive)
[13]
  GI50: 58.6 µM (inactive)
[14]
  GI50: 33.3 µM (inactive)
[15]
  GI50: 52.2 µM (inactive)
[16]
  GI50: 36.1 µM (inactive)
[17]
  GI50: 29.4 µM (inactive)
[18]
  GI50: 35 µM (inactive)
[19]
  GI50: 58.5 µM (inactive)
